Experiment [1] has as its target T1, Sirt3 (Homo sapiens, UniProt Q9NTG7).
T1 construct: The hSirt3^118-399 was purchased from Xtal Biostructures (Natick, MA); purchased Xtal Biostructures (Natick, MA)
T1 sequence (Q9NTG7 118-399): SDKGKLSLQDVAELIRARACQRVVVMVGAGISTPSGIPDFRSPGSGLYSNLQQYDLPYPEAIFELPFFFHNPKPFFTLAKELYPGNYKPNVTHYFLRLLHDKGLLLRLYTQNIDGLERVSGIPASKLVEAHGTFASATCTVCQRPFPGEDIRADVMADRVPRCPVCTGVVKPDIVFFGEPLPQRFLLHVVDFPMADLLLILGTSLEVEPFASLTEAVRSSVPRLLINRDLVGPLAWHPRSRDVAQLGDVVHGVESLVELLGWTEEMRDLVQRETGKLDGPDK
Put plainly: Fluorescence-based (FdL) assay of Sirt3 deacylation activity under steady state conditions. The class given is biochemical. To be noted: for remaining activity at 1 µM: compound 1 μM; for remaining activity at 1 µM / remaining activity at 10 µM: read-out: % Control, Sirt3 deacylation activity; for remaining activity at 10 µM: compound 10 μM; for % Control, Sirt3 deacylation activity: compound 50 μM or maximum. An excerpt:
(§1) FdL2 (QPKK^AC-AMC) peptide, also called p53-AMC peptide, was purchased from Enzo Life Sciences (Farmingdale, NY). Carba-NAD was synthesized by Dalton Pharma (Toronto, ON). The hSirt3^118-399 was purchased from Xtal Biostructures (Natick, MA). Virtual screening hits were supplied from ChemBridge Corp. (San Diego, CA).
(§2) Effect of Hit Compounds on hSirt3^118-399 Deacetylation Activity

For experiment [2], the target named is T1, Sirt3. Put plainly: HPLC assay of Sirt3 deacylation activity under non-steady state conditions. The note with it: compound 10 μM, 2 minute time point, read-out: % Control (10 μM), Sirt3 deacylation activity. Type of experiment: biochemical.
Source text: as §1, §2

With `C=C(CC)C(=O)c1ccc(OCC(=O)NC2c3ccccc3CCc3cc(OCC(=O)NCCCC)ccc32)c(Cl)c1Cl` (centres unmarked) [FIG. 28], at Sirt3 [1], the remaining activity at 1 µM worked out at 80.4 ± 3.1%; the remaining activity at 10 µM was determined as 75.5 ± 2.3%; the “% Control, Sirt3 deacylation activity” value is 68.7 ± 4.0%.

Consider `C=C(CC)C(=O)c1ccc(OCC(=O)N[C@H](Cc2ccc(Cl)cc2)C(=O)NCCCC)c(Cl)c1Cl` [FIG. 1, (2R)—N-butyl-3-(4-chlorophenyl)-2-[[2-[2,3-dichloro-4-(2-methylenebutanoyl)phenoxy]acetyl]amino]propanamide], for which the remaining activity at 10 µM on Sirt3 [2] ([E]0/[NAD+]0 = 0.3, 50 μM NAD+) was 104 ± 3.3%. The remaining activity at 10 µM at Sirt3 [2] ([E]0/[NAD+]0 = 0.6, 50 μM NAD+) stood at 107 ± 1.6%. Further, on Sirt3 [1], the remaining activity at 1 µM is 95.7 ± 2.6%; the remaining activity at 10 µM was determined as 82.8 ± 2.3%; the “% Control, Sirt3 deacylation activity” value came out at 73.6 ± 2.4%.

The record behind these values is patent US12215069B2, “Sirtuin modulating compounds and applications thereof” (Codagen Biosciences, Inc., priority 2022, dated 2025).
